As a reminder, the Kd is the equilibrium constant for the complex coming apart. As usually defined, the IC50 is the concentration that inhibits the measured activity by half.

Each structure is given as a SMILES string. Like-named read-outs stand apart in the source and are kept apart here. Numbered stars: 1 amine (or outer) side, 2 acyl side, 3 side chain; on linkers, the order of the positions; unused ones are H or OH. Square brackets hold non-standard residues; d marks the D form. Peptide text beside a SMILES is read from it. * marks the point of attachment. 5FAM = O=C1OC2(c3ccc(O)cc3Oc3cc(O)ccc32)c2ccc(C(=O)*)cc21; NHCH2C6H4(4-CH2CONH2) = NC(=O)Cc1ccc(CN*)cc1; X1 = O=C(Cc1ccc(CN[*:1])cc1)[*:2]

One experiment addresses T1, K-Ras (Homo sapiens, UniProt P01116, G12V).
T1 construct: purchased Cytoskeleton Inc. CS-RS04
Kind of experiment: MST binding affinity of resynthesized NNP hits to K-Ras. The settings on record: read-out: KD (nM) [95% conf. int]; MST; NNP1 library hit; target K-Ras; one-site binding model. How it is done:
Loading was performed according to the following protocol: The 200 μM stock solution of the target protein was diluted to 10 μM in 20 mM HEPES pH 8.0, 150 mM NaCl, 10 mM MgCl2, 1 mM TCEP, 0.05% Tween-20 (total volume 110 μL). 10 μL were set aside for later labeling quality control. EDTA pH 8.0 (stock concentration 10 mM) was added to the protein solution to a final concentration of 80 μM. GTP (stock concentration 50 mM) was added to the protein solution to a final concentration of 750 μM. The solution was incubated at 30° C. for 2 hours (PCR tube) and then placed on ice for 2 minutes. MgCl2 was added to the protein solution to a final concentration of 100 mM. The resulting protein solution was buffer exchanged into the buffer required in the labeling kit for labeling. […] All the other target molecules (TNFα, IL-6, IL-6R and ASGPR) were used as received without any additional treatment.
Hit binding affinity to various targets were determined using Microscale Thermophoresis (MST). MST experiments were performed on a Monolith NT.115pico (NanoTemper Technologies GmbH, Munich, Germany). Measurements were performed at room temperature, in triplicate with incubation periods of 15, 30 and 45 minutes. […] Targets were labeled using Nanotemper Monolith 2nd Generation Protein Labeling Kits. RED-MALEIMIDE (Maleimide-647-dye) labeling kit was used for K-Ras and RED-NHS (NHS-647-dye) labeling kit was used for IL-6, IL-6R, TNFα and ASGPR. The buffer for the ASGPR contained 20 mM HEPES pH 7.4, 150 mM NaCl, 10 mM MgCl2, 2 mM CaCl2, 0.05% Pluronic F-127, and 1 mM DTT; for IL-6 contained 20 mM HEPES pH 7.4, 150 mM KCl, 10 mM MgCl2, and 0.1% Pluronic F-127; for the soluble IL-6 receptor 20 mM HEPES pH 7.4, 150 mM NaCl, 10 mM MgCl2, and 0.05% Tween-20; for K-Ras 20 mM HEPES pH 7.4, 150 mM NaCl, 10 mM MgCl2, 0.05% Tween-20 and 1 mM DTT; for TNFα 10 mM HEPES pH 7.4, 150 mM NaCl, 10 mM MgCl2, 0.05% Polysorbate-20. Triplicate data was analyzed using MO.AffinityAnalysis software (NanoTemper Technologies GmbH).

The next experiment has as its target T2, cRaf/K-Ras (G12V) PPI (Homo sapiens, UniProt P01116, G12V).
T2 construct: b-Kras G12V (GppNHp) (aa 2-169); biotin (b-
Kind of experiment: K-Ras-cRaf HTRF-based PPI profiling.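 As to blank corrected HTRF: background is the signal of wells with all components except cRaf.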 The experiment is classed as biochemical. Particulars: for blank corrected HTRF: raw data; for % Binding: relative to DMSO controls. The method, then: In some experimental embodiments, a buffer was added to the assay wells which included […] HEPES pH 7.4, 150 mM NaCl, 5 mM MgCl2, 1 mM DTT, 0.005% NP40, and 1% DMSO. 5 uL of 3×K-Ras protein was then added to the assay wells, followed by the synthetic compounds which were added using acoustic technology (ECHO, Labcyte) followed by thirty minutes incubation at room temperature. Afterwards, 5 uL of 3×cRaf protein was added to the assay wells and 5 uL of detection mix was then added to the assay wells after 30 minutes. The detection mix included Mab anti-GST-Tb cryptate (Cisbio 61GSTTLB) and streptavidin-XL665 (Ex/Em=(337/665; 620) in PHERAstar (BMG Labtech)). HTRF signal was measured […] later.
The data includes raw data (signal-background without cRaf protein but with all other component), % binding (relative to DMSO controls), and curve fits. Curve fits were performed when the activities at the highest concentration of the synthetic compounds were less than 65%. Tables 18A-18B below includes the raw data (e.g., blank corrected HTRF) and Tables 19A-19B includes the % binding.

Turning to `CC(C)[C@H](NC(=O)[C@@H](Cc1ccc(O)cc1)NC(=O)[C@@H](Cc1c[nH]cn1)NC(=O)[C@H]1CCCN1C(=O)[C@@H](Cc1c[nH]c2ccccc12)NC(=O)c1ccc2c(c1)C(=O)OC21c2ccc(O)cc2Oc2cc(O)ccc21)C(=O)NCc1ccc(CC(=O)NCC(=O)N[C@@H](C(=O)N2CCC[C@@H]2C(=O)N[C@H](CCCNC(=N)N)C(=O)N[C@@H](C)C(=O)NCc2ccc(CC(=O)N3CCC[C@@H]3C(=O)N[C@H](CO)C(=O)N[C@H](CCC(=O)O)C(=O)N[C@H](CCCNC(=N)N)C(=O)NCC(=O)NCc3ccc(CC(=O)N4CCC[C@@H]4C(=O)N[C@H](CCCCN)C(=O)N[C@H](Cc4ccc(O)cc4)C(=O)N[C@H](CCCNC(=N)N)C(=O)N[C@@H](Cc4ccccc4)C(=O)NCc4ccc(CC(=O)N5CCC[C@@H]5C(=O)NCC(=O)N[C@H](CCCNC(=N)N)C(=O)N[C@H](Cc5c[nH]c6ccccc56)C(=O)NCC(=O)NCc5ccc(CC(=O)N[C@H](Cc6ccc(O)cc6)C(=O)N6CCC[C@@H]6C(=O)N[C@H](CCCNC(=N)N)C(=O)N[C@H](CCC(=O)O)C(=O)NCC(=O)NCc6ccc(CC(N)=O)cc6)cc5)cc4)cc3)cc2)C(C)C)cc1` [KRAS-1-2] (5FAM-[dW][dP][dH][dY]V[X1]G[dV][dP][dR]A[X1][dP][dS][dE][dR]G[X1][dP][dK][dY][dR]F[X1][dP]G[dR][dW]G[X1][dY][dP][dR][dE]G-{NHCH2C6H4(4-CH2CONH2)}), the Kd at K-Ras came out at 49 nM.

For the compound `CC(C)[C@H](NC(=O)[C@@H](Cc1ccc(O)cc1)NC(=O)[C@@H](Cc1c[nH]cn1)NC(=O)[C@H]1CCCN1C(=O)[C@@H](Cc1c[nH]c2ccccc12)NC(=O)c1ccc2c(c1)C(=O)OC21c2ccc(O)cc2Oc2cc(O)ccc21)C(=O)NCc1ccc(CC(=O)N2CCC[C@@H]2C(=O)N[C@H](CO)C(=O)NCC(=O)N[C@H](CO)C(=O)N[C@@H](C)C(=O)NCc2ccc(CC(=O)N3CCC[C@@H]3C(=O)N[C@H](CO)C(=O)N[C@H](CCC(=O)O)C(=O)N[C@H](CCCNC(=N)N)C(=O)NCC(=O)NCc3ccc(CC(=O)N4CCC[C@@H]4C(=O)N[C@H](CCCCN)C(=O)N[C@H](Cc4ccc(O)cc4)C(=O)N[C@H](CCCNC(=N)N)C(=O)N[C@@H](Cc4ccccc4)C(=O)NCc4ccc(CC(=O)N5CCC[C@@H]5C(=O)NCC(=O)N[C@H](CCCNC(=N)N)C(=O)N[C@H](Cc5c[nH]c6ccccc56)C(=O)NCC(=O)NCc5ccc(CC(=O)N[C@H](Cc6ccc(O)cc6)C(=O)N6CCC[C@@H]6C(=O)N[C@H](CCCNC(=N)N)C(=O)N[C@H](CCC(=O)O)C(=O)NCC(=O)NCc6ccc(CC(N)=O)cc6)cc5)cc4)cc3)cc2)cc1` [KRAS-1-5] (5FAM-[dW][dP][dH][dY]V[X1][dP][dS]G[dS]A[X1][dP][dS][dE][dR]G[X1][dP][dK][dY][dR]F[X1][dP]G[dR][dW]G[X1][dY][dP][dR][dE]G-{NHCH2C6H4(4-CH2CONH2)}), on K-Ras, the Kd was determined as 75 nM.

Regarding `CC(C)C[C@H](NC(=O)[C@@H](CCCNC(=N)N)NC(=O)[C@@H](CCCCN)NC(=O)[C@@H](CCC(=O)O)NC(=O)[C@@H](Cc1ccccc1)NC(=O)Cc1ccc(CNC(=O)[C@H](Cc2ccccc2)NC(=O)[C@@H](CO)NC(=O)[C@@H](CCC(=O)O)NC(=O)[C@H]2CCCN2C(=O)[C@@H](CC(C)C)NC(=O)c2ccc3c(c2)C(=O)OC32c3ccc(O)cc3Oc3cc(O)ccc32)cc1)C(=O)NCc1ccc(CC(=O)N2CCC[C@@H]2C(=O)N[C@H](CO)C(=O)N[C@H](CCC(=O)O)C(=O)N[C@H](CCCNC(=N)N)C(=O)NCC(=O)NCc2ccc(CC(=O)N3CCC[C@@H]3C(=O)N[C@H](CCCCN)C(=O)N[C@H](Cc3ccc(O)cc3)C(=O)N[C@H](CCCNC(=N)N)C(=O)N[C@@H](Cc3ccccc3)C(=O)NCc3ccc(CC(=O)N4CCC[C@@H]4C(=O)NCC(=O)N[C@H](CCCNC(=N)N)C(=O)N[C@H](Cc4c[nH]c5ccccc45)C(=O)NCC(=O)NCc4ccc(CC(=O)NCC(=O)N[C@H](Cc5c[nH]c6ccccc56)C(=O)N[C@H](Cc5c[nH]cn5)C(=O)N[C@H](CCCNC(=N)N)C(=O)N[C@@H](C)C(=O)NCc5ccc(CC(N)=O)cc5)cc4)cc3)cc2)cc1` [KRAS-1-12] (5FAM-[dL][dP][dE][dS]F[X1][dF][dE][dK][dR]L[X1][dP][dS][dE][dR]G[X1][dP][dK][dY][dR]F[X1][dP]G[dR][dW]G[X1]G[dW][dH][dR]A-{NHCH2C6H4(4-CH2CONH2)}), the Kd at K-Ras came out at 24 nM.

Turning to `Cn1cnc(Cn2ccc3ccc(CNCc4[nH]c5ccccc5c4[C@H]4NC(=O)c5ccc(O)cc54)cc32)c1` [BI-2852, reference compound], the IC50 on cRaf/K-Ras (G12V) PPI (1% DMSO in reaction, compounds without fluorescein, 30 nM K-Ras G12V, 10 nM GST-cRaf, 30 min pre-incubation, read-out: K-Ras G12V Compound IC50) worked out at 1600 nM; on cRaf/K-Ras (G12V) PPI (10-concentration IC50 mode, 3-fold serial dilution, K-Ras G12V 30 nM, GST-cRaf 10 nM, read-out: IC50), 1600 nM. Moreover, the HillSlope at cRaf/K-Ras (G12V) PPI (curve fit of % binding, K-Ras G12V 30 nM, GST-cRaf 10 nM) is given as −0.5508. The “blank corrected HTRF” value at cRaf/K-Ras (G12V) PPI (conc. 1.67E−05) came out at 2409; at cRaf/K-Ras (G12V) PPI (conc. 1.85E−06), 6562; at cRaf/K-Ras (G12V) PPI (conc. 2.06E−07) it was 10050; at cRaf/K-Ras (G12V) PPI (conc. 2.29E−08) it was 12784; at cRaf/K-Ras (G12V) PPI (conc. 2.54E−09) it was 13013; at cRaf/K-Ras (G12V) PPI (conc. 5.00E−05), 2344. Further, the “blank corrected HTRF” value on cRaf/K-Ras (G12V) PPI (conc. 5.56E−06) is listed as 4849; at cRaf/K-Ras (G12V) PPI (conc. 6.17E−07), 8628; on cRaf/K-Ras (G12V) PPI (conc. 6.86E−08), 11886; at cRaf/K-Ras (G12V) PPI (conc. 7.62E−09), 13422. In addition, the “% Binding” value was 17.36% at cRaf/K-Ras (G12V) PPI (conc. 1.67E−05); 47.29% at cRaf/K-Ras (G12V) PPI (conc. 1.85E−06); 72.42% on cRaf/K-Ras (G12V) PPI (conc. 2.06E−07); 92.13% on cRaf/K-Ras (G12V) PPI (conc. 2.29E−08); 93.78% at cRaf/K-Ras (G12V) PPI (conc. 2.54E−09); 16.9% on cRaf/K-Ras (G12V) PPI (conc. 5.00E−05). Moreover, the “% Binding” value at cRaf/K-Ras (G12V) PPI (conc. 5.56E−06) is 34.94%; on cRaf/K-Ras (G12V) PPI (conc. 6.17E−07) it was 62.18%; on cRaf/K-Ras (G12V) PPI (conc. 6.86E−08) it was 85.66%; on cRaf/K-Ras (G12V) PPI (conc. 7.62E−09) it was 96.73%.

For the origin of these results see US20230393140A1, “BINDING ASSAYS INVOLVING A PLURALITY OF SYNTHETIC COMPOUNDS, TARGETS, AND COUNTER TARGETS” (SRI International, priority 2020, published 2023).
